The results in this text go back to PMC10186300 (Scientific Reports, 2023).

In assay [1] the target is T1, PDZ2 domain of ZO1 (Homo sapiens, UniProt Q07157, F207W). The assay can be described thus: biochemical. The assay is classed as binding. The note with it: pH 7.
For assay [2], the target named is T1, PDZ2 domain of ZO1. Nature of the assay: biochemical. The assay is classed as binding.

Values joined by “and” are separate entries in the source; they are usually repeats but may differ in a detail not shown here. Equal entries are not always repeated. Residues, ends and D or L forms follow the SMILES beside them. *: point of attachment. Dansyl = CN(C)c1cccc2c(S(=O)(=O)*)cccc12

T1 sequence (Q07157 186-264 F207W limits assumed): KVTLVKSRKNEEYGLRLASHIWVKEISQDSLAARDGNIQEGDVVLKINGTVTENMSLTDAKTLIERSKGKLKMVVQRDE

In assay [1], `CC(C)C[C@H](NC(=O)[C@@H]1CCCN1C(=O)[C@@H]1CCCN1C(=O)[C@H](CCCCN)NC(=O)[C@H](CO)NS(=O)(=O)c1cccc2c(N(C)C)cccc12)C(=O)N1CCC[C@H]1C(=O)N1CCC[C@H]1C(=O)N[C@@H](CC(=O)O)C(=O)N[C@@H](CCC(=O)O)C(=O)N[C@@H](Cc1c[nH]c2ccccc12)C(=O)N[C@H](C(=O)O)C(C)C` [MERS-CoV E peptide] (Dansyl-SKPPLPPDEWV-OH) came in with a koff of 154 ± 3 s⁻¹. For the same compound, the Kd in assay [2] was 14 ± 1 µM. On to `CC(C)C[C@H](NC(=O)[C@H](CC(=O)O)NC(=O)[C@@H]1CCCN1C(=O)[C@@H](NC(=O)CNC(=O)[C@H](CCC(=O)O)NC(=O)[C@H](CO)NC(=O)[C@H](CO)NC(=O)[C@H](CC(N)=O)NS(=O)(=O)c1cccc2c(N(C)C)cccc12)C(C)C)C(=O)N[C@@H](CC(C)C)C(=O)N[C@H](C(=O)O)C(C)C` [SARS-CoV E peptide] (Dansyl-NSSEGVPDLLV-OH), for which the koff in assay [1] is 9 s⁻¹ and 7.0 ± 0.1 s⁻¹ and 6.9 ± 0.1 s⁻¹ and 6.2 ± 0.1 s⁻¹. Also, the Kd in assay [2] is 4.7 µM and 5 µM and 8.6 µM. In the case of `CC(C)C[C@H](NC(=O)[C@H](CC(=O)O)NC(=O)[C@@H]1CCCN1C(=O)[C@@H](NC(=O)[C@H](CCCNC(=N)N)NC(=O)[C@H](CO)NC(=O)[C@H](CO)NC(=O)[C@H](CC(N)=O)NS(=O)(=O)c1cccc2c(N(C)C)cccc12)C(C)C)C(=O)N[C@@H](CC(C)C)C(=O)N[C@H](C(=O)O)C(C)C` [SARS-CoV-2 E peptide] (Dansyl-NSSRVPDLLV-OH), the koff in assay [1] was 9.5 s⁻¹ and 8.7 ± 0.2 s⁻¹ and 6.8 ± 0.1 s⁻¹ and 9.1 ± 0.2 s⁻¹. Further, the Kd in assay [2] was 15.8 µM and 17.4 µM and 15.2 µM.

For the compound ENVGLMQQQK [reference compound], the “change in fluorescence upon binding (negative control)” value in assay [2] (pH 7) was “no change in fluorescence upon binding”.
